pIC50: −log10 of the molar value. In brackets after ≈: the same amount, converted by molar mass. Several values for one entry are separate records, joined by “and”; a condition that tells them apart may be missing. Equal entries are not always repeated. Where two headings read alike, the source gives them in different places. One block for each compound: values may come before it.
Tests used:
[1] = tested on: Staphylococcus aureus and Bacillus subtilis; experiment: Bacterial cell growth inhibition, bacterium not specified at the place; format: cell-based
B. subtilis [2] = experiment: B. subtilis growth inhibition assay; format: cell-based, Bacillus subtilis; conditions: 12 hours at 37°C, OD600
SaUPPS = target: T1, SaUPPS (Staphylococcus aureus, UniProt P60477); experiment: biochemical; format: biochemical
T1 sequence (P60477 1-256): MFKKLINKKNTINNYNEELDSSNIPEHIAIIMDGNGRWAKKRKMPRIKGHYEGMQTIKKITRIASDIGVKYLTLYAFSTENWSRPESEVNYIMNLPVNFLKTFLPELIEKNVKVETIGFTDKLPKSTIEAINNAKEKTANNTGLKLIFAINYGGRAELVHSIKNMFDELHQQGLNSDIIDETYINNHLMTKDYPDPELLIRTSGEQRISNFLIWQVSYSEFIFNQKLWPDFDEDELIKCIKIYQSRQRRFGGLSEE

[3] = target: EcUPPP (fusion hybrid of E. coli UPPP with Haloarcula marismortui bacteriorhodopsin) (UniProt P60932+Q5UXY6, D94N); format: biochemical; conditions: read-out: IC50 EcUPPP
EcUPPP (fusion hybrid of E. coli UPPP with Haloarcula marismortui bacteriorhodopsin), sequence (P60932 whole entry, looked up, the tested form may be a part): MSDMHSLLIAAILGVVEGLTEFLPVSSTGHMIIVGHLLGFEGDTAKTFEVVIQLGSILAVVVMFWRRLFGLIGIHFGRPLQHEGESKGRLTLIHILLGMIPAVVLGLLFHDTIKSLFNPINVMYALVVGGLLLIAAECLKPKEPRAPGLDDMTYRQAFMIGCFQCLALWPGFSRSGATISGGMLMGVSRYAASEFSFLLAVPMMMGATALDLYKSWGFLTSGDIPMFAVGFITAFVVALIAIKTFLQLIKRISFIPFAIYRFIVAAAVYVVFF
EcUPPP (fusion hybrid of E. coli UPPP with Haloarcula marismortui bacteriorhodopsin), sequence (Q5UXY6 whole entry, looked up, stated change not applied, the tested form may be a part): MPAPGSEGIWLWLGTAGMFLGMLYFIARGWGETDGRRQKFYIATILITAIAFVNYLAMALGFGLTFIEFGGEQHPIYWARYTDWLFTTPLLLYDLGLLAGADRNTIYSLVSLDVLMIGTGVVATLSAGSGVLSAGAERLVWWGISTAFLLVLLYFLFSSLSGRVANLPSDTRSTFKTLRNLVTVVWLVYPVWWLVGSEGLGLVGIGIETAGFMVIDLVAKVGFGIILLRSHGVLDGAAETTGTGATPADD

B. subtilis [4] = experiment: Synergy/antagonism two-drug combination assay, B. subtilis; format: cell-based, Bacillus subtilis; conditions: for FIC antibiotic / FIC Index / Mean FICI / FIC 7: B. subtilis; for FIC antibiotic: antibiotic in combination with 7, mean±SD duplicate; for FIC Index: combination of the antibiotic with 7, mean±SD; for MIC: Bacillus subtilis
S. aureus = experiment: Synergy/antagonism two-drug combination assay, S. aureus; format: cell-based, Staphylococcus aureus; conditions: for FIC antibiotic / FIC Index / Mean FICI / FIC 7: S. aureus; for FIC antibiotic: antibiotic in combination with 7, mean±SD duplicate; for FIC Index: combination of the antibiotic with 7, mean±SD; for MIC: Staphylococcus aureus
B. subtilis [5] = conditions: earlier work of the authors, no reference given; cited from earlier work
E. coli UPPS (EcUPPS) = conditions: read-out: IC50 EcUPPS; previous work ref 3b; cited from earlier work
E. coli = conditions: earlier work of the authors, no reference given; cited from earlier work
[6] = tested on: S. aureus and B. subtilis; experiment: Synergy/antagonism assays, average over B. subtilis and S. aureus combinations; format: cell-based
NCI-H460 cells = experiment: H460 cell toxicity; format: cell-based, human; conditions: 24 h, MTT
[7] = 7 with inhibitors targeting cell wall biosynthesis
[8] = 7 with inhibitors targeting nucleic acids and protein biosynthesis

Compound: 2-(N-Methyl-3-(octyloxy)benzamido)phenylphosphonic acid [Compound 31]
antibacterial activity (in words) ([1]; S. aureus and B. subtilis cell growth): little or no antibacterial activity
ED50 B. subtilis cell growth (B. subtilis [2]): >100 µg/mL
pIC50 (SaUPPS; read-out: IC50 SaUPPS, 5 μM FPP, 50 μM IPP, pH 7.5): 4.41
pIC50 [3]: 5.19

MIC (B. subtilis [4]; 24 h, read-out: MIC antibiotic): 0.5 µg/mL
MIC (S. aureus; 24 h, read-out: MIC antibiotic): 0.5 µg/mL
Compound: CC1(C)S[C@@H]2[C@H](NC(=O)[C@H](N)c3ccccc3)C(=O)N2[C@H]1C(=O)O [Ampicillin, ampicillin]
FIC antibiotic (B. subtilis [4]): 0.30 ± 0.072
FIC Index (B. subtilis [4]): 0.53 ± 0.11
FIC antibiotic (S. aureus): 0.41 ± 0.17
FIC Index (S. aureus): 0.56 ± 0.18

MIC (B. subtilis [4]; 24 h, read-out: MIC antibiotic): 5 µg/mL
MIC (S. aureus; 24 h, read-out: MIC antibiotic): 15 µg/mL
Compound: CC1(C)S[C@@H]2[C@H](NC(=O)C(C(=O)O)c3ccccc3)C(=O)N2[C@H]1C(=O)O (some centres unmarked) [Carbenicillin, carbenicillin]
FIC antibiotic (B. subtilis [4]): 0.22 ± 0.073
FIC Index (B. subtilis [4]): 0.37 ± 0.10
FIC antibiotic (S. aureus): 0.23 ± 0.048
FIC Index (S. aureus): 0.30 ± 0.055

MIC (B. subtilis [4]; 24 h, read-out: MIC antibiotic): 2.5 µg/mL
MIC (S. aureus; 24 h, read-out: MIC antibiotic): 2 µg/mL
Compound: CO/N=C(\C(=O)N[C@@H]1C(=O)N2C(C(=O)O)=C(COC(C)=O)CS[C@H]12)c1csc(N)n1 [Cefotaxime, cefotaxime]
FIC antibiotic (B. subtilis [4]): 0.17 ± 0.026
FIC Index (B. subtilis [4]): 0.31 ± 0.085
FIC antibiotic (S. aureus): 0.18 ± 0.055
FIC Index (S. aureus): 0.27 ± 0.063

MIC (B. subtilis [4]; 24 h, read-out: MIC antibiotic): 0.5 µg/mL
MIC (S. aureus; 24 h, read-out: MIC antibiotic): 5 µg/mL
Compound: O=C(N[C@H](CO)[C@H](O)c1ccc([N+](=O)[O-])cc1)C(Cl)Cl [Chloramphenicol, chloramphenicol]
FIC antibiotic (B. subtilis [4]): 0.75 ± 0.18
FIC Index (B. subtilis [4]): 1.72 ± 0.46
FIC antibiotic (S. aureus): 0.88 ± 0.47
FIC Index (S. aureus): 1.69 ± 0.56

Compound: CCCCCCCCCCOc1cccc(C(=O)Nc2ccc([N+](=O)[O-])cc2C(=O)O)c1 [Compound 6, 2-(3-(decyloxy)benzamido)-5-nitrobenzoic acid]
ED50 against B. subtilis (B. subtilis [5]): 1300 nM
pIC50 (E. coli UPPS (EcUPPS)): 5.52
activity against E. coli (in words) (E. coli): no activity

MIC (B. subtilis [4]; read-out: MIC 7): 1 µg/mL
pIC50 (SaUPPS): 6.49
MIC (S. aureus; read-out: MIC 7): 1 µg/mL
Compound: CCCCCCCCOc1cccc(C(=O)Nc2ccc(F)cc2C(=O)O)c1 [Compound 7, 5-Fluoro-2-(3-(octyloxy)benzamido)benzoic acid]
FICI on average ([6]; with known cell wall biosynthesis inhibitors, n=13 cell/inhibitor combinations): ~ 0.35
FICI on average ([6]; with non cell-wall biosynthesis inhibitors, n=12 cell/inhibitor combinations): ~ 1.45
ED50 bacterial growth ([1]; abstract, bacterium not specified): ~ 0.15 μg/mL
Mean FICI (B. subtilis [4]; [7]): 0.37 and 0.37 ± 0.14
Mean FICI (B. subtilis [4]; [8]): 1.47 and 1.47 ± 0.28
FIC 7 (B. subtilis [4]; with Ampicillin): 0.23 ± 0.084
FIC 7 (B. subtilis [4]; with Bacitracin): 0.36 ± 0.14
FIC 7 (B. subtilis [4]; with Carbenicillin): 0.15 ± 0.071
FIC 7 (B. subtilis [4]; with Cefotaxime): 0.14 ± 0.081
FIC 7 (B. subtilis [4]; with Chloramphenicol): 0.97 ± 0.42
FIC 7 (B. subtilis [4]; with Fosfomycin): 0.063 ± 0.022
FIC 7 (B. subtilis [4]; with Fosmidomycin): 0.13 ± 0.056
FIC 7 (B. subtilis [4]; with Kanamycin): 0.71 ± 0.30
FIC 7 (B. subtilis [4]; with Sulfamethoxazole): 0.94 ± 0.64
FIC 7 (B. subtilis [4]; with Tetracycline): 0.57 ± 0.50
FIC 7 (B. subtilis [4]; with Trimethoprim): 0.85 ± 0.29
FIC 7 (B. subtilis [4]; with Vancomycin): 0.17 ± 0.063
ED50 B. subtilis cell growth (B. subtilis [2]): 0.14 µg/mL (≈ 0.361 µM)
Mean FICI (S. aureus; [7]): 0.32 and 0.32 ± 0.12
Mean FICI (S. aureus; [8]): 1.42 and 1.42 ± 0.37
FIC 7 (S. aureus; with Ampicillin): 0.15 ± 0.071
FIC 7 (S. aureus; with Bacitracin): 0.044 ± 0.019
FIC 7 (S. aureus; with Carbenicillin): 0.077 ± 0.026
FIC 7 (S. aureus; with Cefotaxime): 0.084 ± 0.031
FIC 7 (S. aureus; with Chloramphenicol): 0.81 ± 0.31
FIC 7 (S. aureus; with Fosfomycin): 0.091 ± 0.034
FIC 7 (S. aureus; with Kanamycin): 0.83 ± 0.29
FIC 7 (S. aureus; with Spectinomycin): 0.81 ± 0.32
FIC 7 (S. aureus; with Sulfamethoxazole): 0.98 ± 0.37
FIC 7 (S. aureus; with Tetracycline): 0.51 ± 0.24
FIC 7 (S. aureus; with Trimethoprim): 0.57 ± 0.25
FIC 7 (S. aureus; with Vancomycin): 0.15 ± 0.062
toxicity against human cell line NCI-H460 (in words) (NCI-H460 cells): low activity

MIC (B. subtilis [4]; 24 h, read-out: MIC antibiotic): 200 µg/mL
MIC (S. aureus; 24 h, read-out: MIC antibiotic): 200 µg/mL
Compound: C[C@@H]1O[C@@H]1P(=O)(O)O [Fosfomycin, fosfomycin]
FIC antibiotic (B. subtilis [4]): 0.16 ± 0.15
FIC Index (B. subtilis [4]): 0.22 ± 0.15
FIC antibiotic (S. aureus): 0.20 ± 0.11

MIC (B. subtilis [4]; 24 h, read-out: MIC antibiotic): 5 µg/mL
Compound: O=CN(O)CCCP(=O)(O)O [Fosmidomycin, fosmidomycin]
FIC antibiotic (B. subtilis [4]): 0.039 ± 0.0053
FIC Index (B. subtilis [4]): 0.17 ± 0.056
FIC Index (B. subtilis [4]; listed as fosmidomycin): 0.17

MIC (S. aureus; 24 h, read-out: MIC antibiotic): 40 µg/mL
Compound: CN[C@@H]1[C@H](O)[C@H](NC)[C@H]2O[C@@]3(O)C(=O)C[C@@H](C)O[C@H]3O[C@@H]2[C@H]1O [Spectinomycin, spectinomycin]
FIC antibiotic (S. aureus): 0.75 ± 0.43
FIC Index (S. aureus): 1.56 ± 0.54

MIC (B. subtilis [4]; 24 h, read-out: MIC antibiotic): 200 µg/mL
MIC (S. aureus; 24 h, read-out: MIC antibiotic): 200 µg/mL
Compound: Cc1cc(NS(=O)(=O)c2ccc(N)cc2)no1 [Sulfamethoxazole, sulfamethoxazole]
FIC antibiotic (B. subtilis [4]): 0.78 ± 0.21
FIC Index (B. subtilis [4]): 1.72 ± 0.67
FIC Index (B. subtilis [4]; listed as sulfamethoxazole): 1.72
FIC antibiotic (S. aureus): 0.54 ± 0.13
FIC Index (S. aureus): 1.53 ± 0.39

Compound: CN(C)[C@@H]1C(O)=C(C(N)=O)C(=O)[C@@]2(O)C(O)=C3C(=O)c4c(O)cccc4[C@@](C)(O)[C@H]3C[C@@H]12 [Tetracycline, tetracycline]
FIC antibiotic (B. subtilis [4]): 0.48 ± 0.047
FIC Index (B. subtilis [4]): 1.04 ± 0.50
MIC (B. subtilis [4]; 24 h, read-out: MIC antibiotic): 5 µg/mL
FIC antibiotic (S. aureus): 0.24 ± 0.11
FIC Index (S. aureus): 0.75 ± 0.26
MIC (S. aureus; 24 h, read-out: MIC antibiotic): 0.5 µg/mL

Compound: COc1cc(Cc2cnc(N)nc2N)cc(OC)c1OC [Trimethoprim, trimethoprim]
FIC antibiotic (B. subtilis [4]): 0.66 ± 0.13
FIC Index (B. subtilis [4]): 1.51 ± 0.32
MIC (B. subtilis [4]; 24 h, read-out: MIC antibiotic): 0.5 µg/mL
FIC antibiotic (S. aureus): 0.69 ± 0.32
FIC Index (S. aureus): 1.26 ± 0.41
MIC (S. aureus; 24 h, read-out: MIC antibiotic): 15 µg/mL

Compound: CN[C@H](CC(C)C)C(=O)N[C@H]1C(=O)N[C@@H](CC(N)=O)C(=O)N[C@H]2C(=O)N[C@H]3C(=O)N[C@H](C(=O)N[C@H](C(=O)O)c4cc(O)cc(O)c4-c4cc3ccc4O)[C@H](O)c3ccc(c(Cl)c3)Oc3cc2cc(c3O[C@@H]2O[C@H](CO)[C@@H](O)[C@H](O)[C@H]2O[C@H]2C[C@](C)(N)[C@H](O)[C@H](C)O2)Oc2ccc(cc2Cl)[C@H]1O [Vancomycin, vancomycin]
FIC antibiotic (B. subtilis [4]): 0.27 ± 0.24
FIC Index (B. subtilis [4]): 0.44 ± 0.25
MIC (B. subtilis [4]; 24 h, read-out: MIC antibiotic): 0.5 µg/mL
FIC antibiotic (S. aureus): 0.14 ± 0.034
FIC Index (S. aureus): 0.29 ± 0.071
MIC (S. aureus; 24 h, read-out: MIC antibiotic): 1.5 µg/mL
